Results reported in article PMC8226262, “Licarin-B Exhibits Activity Against the Toxoplasma gondii RH Strain by Damaging Mitochondria and Activating Autophagy” (Frontiers in Cell and Developmental Biology, 2021).
Read-outs that look alike come from different tables or passages of the source.

Assays:
HFF cells = assay: Cytotoxicity assay (CCK-8); format: cell-based, Human
Description: In brief, HFFs (1 × 10^4 cells/well) were seeded in 96-well plates in a monolayer and incubated with different concentrations of the compounds in DMEM with 1% FBS; DMEM without compound was used as a control. After 24 h, CCK-8 solution (Biomake, United States) was added, and absorbance was measured at 450 nm using a Multiskan GO instrument (Thermo Fisher Scientific, MA, United States). The cell viability values are expressed as percentages of the control value (considered as 100% survival). […] Triplicate independent experiments were performed.

[1] = system: T. gondii tachyzoites (strain RH) in HFFs; assay: In vitro screening of anti-T. gondii activity (Giemsa staining, qPCR); format: cell-based, Toxoplasma gondii; conditions: 24 h; for inhibition at 20 µg/mL: 20 μg/mL
Description: Human foreskin fibroblasts were seeded in 6-well plates and infected with 3 × 10^4 fresh T. gondii tachyzoites. After 8 h, the natural compounds in DMEM supplemented with 1% FBS were added. Sulfadiazine and pyrimethamine were included as positive drug controls. After incubation for 24 h, the cells were washed twice with PBS, stained with Giemsa, and observed by light microscopy. In addition, total DNA was isolated from the cells using DNAiso Reagent (Takara), and a 529-bp repeat element was amplified by quantitative polymerase chain reaction (qPCR) with the following primers: Tox-F (5′-AGGAGAGATATCAGGACTGTAG-3′), Tox-R (5′-GCGTCGTCTCGTCTAGATCG-3′), and the Taqman probe Tox-TP (6-Fam CCGGCTTGGCTGCTTTTCCT BHQ1), as described in a previous study ([Zhang J.L. et al., 2019]). The inhibition rates against T. gondii proliferation for the natural compounds at concentrations with no HFF toxicity were calculated, and the inhibition rate in each treatment group was presented as the % of the control group. The experiment was repeated three times.

[2] = system: T. gondii tachyzoite intracellular proliferation in HFFs; assay: Anti-proliferation activity of licarin-B (qPCR); format: cell-based, Toxoplasma gondii; conditions: Toxoplasma gondii, 0.4 μg/mL, 24 h
Description: DMEM without drugs was used as a parasite control. […] After 24 h, the cells were washed twice with PBS, and total genomic DNA from the cells was obtained as described in a previous study ([Zhang J.L. et al., 2019]). […] The results represent the means ± standard deviations (SD) from at least three independent experiments. The EC50 of licarin-B for tachyzoite growth inhibition was plotted as a function of the compound concentration via non-linear curve analysis using SPSS 19.0 software (SPSS Inc., Chicago, IL, United States). The results of the anti-invasion and anti-proliferation tests, the in vivo assays of the survival rate and parasite burden and data comparisons between the parasite control and treatment groups were statistically analyzed by one-way analysis of variance (ANOVA) using SPSS software.

[3] = system: T. gondii invasion of HFFs; assay: Anti-invasion assessment in vitro (qPCR); format: cell-based, Toxoplasma gondii; conditions: Toxoplasma gondii, 0.4 μg/mL, 2 h of infection, read-out: Anti-invasion inhibition rate
Description: Human foreskin fibroblasts were seeded in 6-well plates and incubated with different concentrations of licarin-B (4.5, 9, 13.5, 18, or 22.5 μg/mL), sulfadiazine (0.4 μg/mL, as a positive control) or without drugs in DMEM supplemented with 1% FBS and then infected with 3 × 10^6 fresh parasites per well. The anti-invasion capability of licarin-B was determined by qPCR after 2 h of infection, as described in a previous study ([Zhang J.L. et al., 2019]). Triplicate independent experiments were performed.

[4] = 80 μg/mL, T. gondii proliferation in HFFs
[5] = Toxoplasma gondii, 4 μg/mL, T. gondii proliferation in HFFs, read-out: Mean inhibition rate (% of control)
[6] = Toxoplasma gondii, read-out: Mean inhibition rate (% of control)
[7] = Toxoplasma gondii, T. gondii proliferation in HFFs, read-out: Mean inhibition rate (% of control)

O=C(/C=C/c1ccc(O)c(O)c1)O[C@@H]1C[C@](O)(C(=O)O)C[C@@H](O)[C@H]1O [Chlorogenic acid, chlorogenic acid]
Natural compound concentration range with no toxicity to HFF cells (HFF cells; human, 24 h): 0.01 to 400 µg/mL
inhibition at 400 µg/mL ([1]; Toxoplasma gondii, 400 μg/mL, T. gondii proliferation in HFFs, read-out: Mean inhibition rate (% of control)): 34.6 ± 2.77%

O=C(O)[C@H](O)c1ccccc1 [D-mandelic acid]
Natural compound concentration range with no toxicity to HFF cells (HFF cells; CCK-8, 24 h, DMEM with 1% FBS): 0.01 to 80 µg/mL
Mean inhibition rate (% of control) [1, 4]: 9.30 ± 3.76%

C/C=C/c1cc(OC)c2c(c1)C(C)C(c1ccc(O)c(OC)c1)O2 (stereo not drawn) [Dehydrodiisoeugenol, dehydrodiisoeugenol]
Mean inhibition rate (% of control) [1, 4]: 8.14 ± 2.15%

COc1cc(O)ccc1/C=C/C(=O)c1ccc(O)cc1 [Echinatin, echinatin]
Natural compound concentration range with no toxicity to HFF cells (HFF cells; CCK-8, 24 h, DMEM with 1% FBS): 0.01 to 4 µg/mL
inhibition at 4 µg/mL [1, 5]: 63.1 ± 10.7%

O=c1c(-c2ccc(O)cc2)coc2cc(O)cc(O)c12 [Genistein, genistein]
Natural compound concentration range with no toxicity to HFF cells (HFF cells; CCK-8, 24 h, DMEM with 1% FBS): 0.01 to 40 µg/mL
inhibition at 40 µg/mL [1, 6]: 22.3 ± 5.91%

O=c1c(-c2ccc(O)cc2)coc2cc(O[C@@H]3O[C@H](CO)[C@@H](O)[C@H](O)[C@H]3O)cc(O)c12 [Genistin, genistin]
Natural compound concentration range with no toxicity to HFF cells (HFF cells; CCK-8, 24 h, DMEM with 1% FBS): 0.01 to 32 µg/mL
inhibition at 32 µg/mL ([1]; Toxoplasma gondii, 32 μg/mL, T. gondii proliferation in HFFs, read-out: Mean inhibition rate (% of control)): 26.3 ± 3.54%

COc1cc2c(=O)c(-c3ccc(O)cc3)coc2cc1O [Glycitein, glycitein]
Natural compound concentration range with no toxicity to HFF cells (HFF cells; CCK-8, 24 h, DMEM with 1% FBS): 0.01 to 40 µg/mL
inhibition at 40 µg/mL ([1]; Toxoplasma gondii, 40 μg/mL, T. gondii proliferation in HFFs, read-out: Mean inhibition rate (% of control)): 8.11 ± 2.19%

O=C(/C=C/c1ccc(O)cc1)c1ccc(O)cc1O [Isoliquiritigenin, isoliquiritigenin]
Natural compound concentration range with no toxicity to HFF cells (HFF cells; human, 24 h): 0.01 to 4 µg/mL
inhibition at 4 µg/mL [1, 5]: 42.8 ± 7.92%

O=C(O)[C@@H](O)c1ccccc1 [L-mandelic acid]
Natural compound concentration range with no toxicity to HFF cells (HFF cells; CCK-8, 24 h, DMEM with 1% FBS): 0.01 to 80 µg/mL
Mean inhibition rate (% of control) [1, 4]: 11.87 ± 2.84%

COc1c(/C=C/C(=O)c2ccc(O)cc2)ccc(O)c1O [Licochalcone B]
Mean inhibition rate (% of control) ([1]; 16 μg/mL, T. gondii proliferation in HFFs): 51.67 ± 6.71%

COc1c(/C=C/C(=O)c2ccc(O)cc2)ccc(O)c1CC=C(C)C [Licochalcone C, licochalcone C]
Mean inhibition rate (% of control) ([1]; 4 μg/mL, T. gondii proliferation in HFFs): 54.91 ± 4.85%

CC1(C)O[C@H]2CC(=O)OC[C@]23[C@H]2CC[C@@]4(C)[C@H](c5ccoc5)OC(=O)[C@H]5O[C@]54[C@]2(C)C(=O)C[C@@H]13 [Limonin, limonin]
Natural compound concentration range with no toxicity to HFF cells (HFF cells; human, 24 h): 0.01 to 80 µg/mL
inhibition at 80 µg/mL ([1]; Toxoplasma gondii, 80 μg/mL, T. gondii proliferation in HFFs, read-out: Mean inhibition rate (% of control)): 72.2 ± 9.78%

CC1(C)CC[C@]2(C(=O)O)CC[C@]3(C)C(=CC[C@@H]4[C@@]5(C)C[C@@H](O)[C@H](O)C(C)(C)[C@@H]5CC[C@]43C)[C@@H]2C1 [Maslinic acid, maslinic acid]
Natural compound concentration range with no toxicity to HFF cells (HFF cells; CCK-8, 24 h, DMEM with 1% FBS): 0.01 to 4 µg/mL
inhibition at 4 µg/mL [1, 6]: 65.4 ± 4.53%

CCCCCCCCCCCCCC(=O)OC [Methyl myristate, methyl myristate]
Natural compound concentration range with no toxicity to HFF cells (HFF cells; human, 24 h): 0.01 to 160 µg/mL
inhibition at 160 µg/mL ([1]; Toxoplasma gondii, 160 μg/mL, T. gondii proliferation in HFFs, read-out: Mean inhibition rate (% of control)): 7.65 ± 2.64%

CCCCCCCCCCCCCC(=O)O [Myristic acid, myristic acid]
Natural compound concentration range with no toxicity to HFF cells (HFF cells; CCK-8, 24 h, DMEM with 1% FBS): 0.01 to 20 µg/mL
inhibition at 20 µg/mL [1, 7]: 26.3 ± 1.32%

C=CCc1cc(OC)c2c(c1)OCO2 [Myristicin, myristicin]
Natural compound concentration range with no toxicity to HFF cells (HFF cells; CCK-8, 24 h, DMEM with 1% FBS): 0.01 to 40 µg/mL
inhibition at 40 µg/mL [1, 6]: 22.3 ± 3.46%

CC1=CC(=O)C(C(C)C)CC1 (stereo not drawn) [Piperitone, piperitone]
Natural compound concentration range with no toxicity to HFF cells (HFF cells; human, 24 h): 0.01 to 20 µg/mL
inhibition at 20 µg/mL [1, 7]: 31.1 ± 1.97%

Nc1ccc(S(=O)(=O)Nc2ncccn2)cc1 [Sulfadiazine, reference compound]
inhibition at 0.4 µg/mL [2]: 40.8%
inhibition at 0.4 µg/mL [3]: 56.5%

Cc1ccc(C(C)C)c(O)c1 [Thymol, thymol]
Natural compound concentration range with no toxicity to HFF cells (HFF cells; human, 24 h): 0.01 to 16 µg/mL
inhibition at 16 µg/mL ([1]; Toxoplasma gondii, 16 μg/mL, T. gondii proliferation in HFFs, read-out: Mean inhibition rate (% of control)): 25.7 ± 2.31%

licorice glycosides
Mean inhibition rate (% of control) [1, 4]: 35.93 ± 4.78%
